Experimental data taken from EP4480960A1, “A R[…] ALPHA-1 ANTITRYPSIN GLYCOPROTEIN” (AATEC Medical GmbH, priority 2023, dated 2024).
Structures can show the parent of a compound that is named as a salt.

Legend:
[1] = target: T1, human neutrophil elastase (Homo sapiens, UniProt P08246); assay: Neutrophil Elastase activity assay (fluorogenic MEOSUC-Ala-Ala-Pro-Val-AMC substrate); type: biochemical; design: key to Neutrophil Elastase IC50 / Neutrophil Elastase IC90: - = inactive
T1 construct: purchased Merck Millipore 324681
T1 sequence (P08246 30-247 limits assumed): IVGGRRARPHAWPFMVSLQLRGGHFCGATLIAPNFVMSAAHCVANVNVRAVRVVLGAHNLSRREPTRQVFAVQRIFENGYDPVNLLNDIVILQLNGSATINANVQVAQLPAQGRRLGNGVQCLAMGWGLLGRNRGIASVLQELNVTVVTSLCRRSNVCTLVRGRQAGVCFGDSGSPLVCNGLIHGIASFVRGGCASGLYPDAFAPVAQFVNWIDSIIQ

[2] = target: recombinant human TMPRSS2 enzyme (CusaBio #YP023924HU) (human) (UniProt O15393); assay: cell-based or functional assay
Sequence of recombinant human TMPRSS2 enzyme (CusaBio #YP023924HU) (human) (O15393 106-492 limits assumed): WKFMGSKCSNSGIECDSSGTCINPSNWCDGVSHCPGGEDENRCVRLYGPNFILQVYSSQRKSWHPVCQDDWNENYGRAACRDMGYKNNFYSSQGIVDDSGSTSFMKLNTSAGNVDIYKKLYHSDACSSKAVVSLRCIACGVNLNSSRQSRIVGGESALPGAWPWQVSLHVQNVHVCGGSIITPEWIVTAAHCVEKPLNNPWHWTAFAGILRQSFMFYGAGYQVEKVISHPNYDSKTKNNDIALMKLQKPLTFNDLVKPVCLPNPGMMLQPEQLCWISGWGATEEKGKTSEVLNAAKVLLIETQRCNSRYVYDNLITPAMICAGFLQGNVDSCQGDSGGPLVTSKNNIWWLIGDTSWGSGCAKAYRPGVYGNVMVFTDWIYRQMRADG

[3] = 15 min preincubation at 37 °C, read after 5 minutes

Compound | Neutrophil Elastase IC50 [1, 3] | Neutrophil Elastase IC90 [1, 3] | inhibition of neutrophil elastase activity ([1]; result in words) | TMPRSS2 IC50 (fluorogenic substrate enzyme activity assay) [2]
CN(C)C(=O)COC(=O)Cc1ccc(OC(=O)c2ccc(NC(=N)N)cc2)cc1 [Camostat mesylate] | - | - | did not inhibit | 
NIBSC Standard Alpha-1-Antitrypsin, plasma derived (1st International standard) (#05/162 NIBSC) (from UniProt P01009 25-418) |  |  |  | 51.8 nM
Prolastin (Grifols), human plasma-derived A1AT formulation (from UniProt P01009 25-418) |  |  |  | 79 nM
